The text below walks through data of ChEMBL document CHEMBL1155123, “Synthesis and discovery of autophagy inducers for A549 and H460 lung cancer cells, novel 1-(2'-hydroxy-3'-aroxypropyl)-3-aryl-1H-pyrazole-5-carbohydrazide derivatives” (Bioorg Med Chem Lett, 2008).

The source made the active and inactive calls. The rule behind the calls is not given here.

The test system of data set [1] is A549. Kind of data set: Growth inhibition of human A549 cells after 48 hrs by MTT assay. It counts as functional, cell-based. Conditions: A549, 48 h. In general terms: Tetrazolium assays rely on reduction of a dye to a coloured formazan, in cell work by metabolically active cells.
For data set [2], the system named is A549. The experiment in a line: Growth inhibition of human A549 cells after 96 hrs by MTT assay. It counts as functional, cell-based. The settings on record: A549, 96 h.
Data set [3] has as its system A549. The experiment in a line: Induction of apoptosis in human A549 cells assessed as nuclear and acidic compartment morphology at 80 uM. Type of data set: functional, cell-based.
Data set [4] has as its system NCI-H460. Kind of data set: Induction of apoptosis in human H460 cells assessed as nuclear and acidic compartment morphology at 80 uM. Type of data set: functional, cell-based.
In data set [5] the test system is A549. The experiment in a line: Induction of autophagy in human A549 cells assessed as nuclear and acidic compartment morphology at 10 to 80 uM after 24 hrs. Type of data set: functional, cell-based.
Data set [6] relates to A549. Kind of data set: Induction of autophagy in human A549 cells assessed as nuclear and acidic compartment morphology at 80 uM after 48 hrs. Type of data set: functional, cell-based.
For data set [7], the system named is NCI-H460. The experiment in a line: Induction of autophagy in human H460 cells assessed as nuclear and acidic compartment morphology at 80 uM after 24 hrs. It counts as functional, cell-based.
In data set [8] the test system is NCI-H460. Kind of data set: Induction of autophagy in human H460 cells assessed as nuclear and acidic compartment morphology at 80 uM after 48 hrs. Type of data set: functional, cell-based.
In data set [9] the test system is A549. The experiment in a line: Induction of necrosis in human A549 cells assessed as LDH release at 80 uM after 24 hrs. Type of data set: functional, cell-based. (In general: LDH leaks from cells whose membrane has failed.)
The test system of data set [10] is NCI-H460. The experiment in a line: Induction of necrosis in human H460 cells assessed as LDH release at 80 uM after 24 hrs. Type of data set: functional, cell-based.
The subject of data set [11] is A549. The experiment in a line: Induction of necrosis in human A549 cells assessed as LDH release at 80 uM after 48 hrs. It counts as functional, cell-based.
The subject of data set [12] is NCI-H460. The experiment in a line: Induction of necrosis in human H460 cells assessed as LDH release at 80 uM after 48 hrs. Type of data set: functional, cell-based.
Data set [13] concerns A549. The experiment in a line: Antiproliferative activity against human A549 cells assessed as cell viability at 40 uM after 24 hrs by MTT assay. Type of data set: functional. Conditions: A549, 24 h, read-out: Activity.
For data set [14], the system named is A549. Kind of data set: Antiproliferative activity against human A549 cells assessed as cell viability at 40 uM after 48 hrs by MTT assay relative to control. Type of data set: functional. Conditions: A549, 48 h, read-out: Activity.
The test system of data set [15] is A549. The experiment in a line: Antiproliferative activity against human A549 cells assessed as cell viability at 80 uM after 96 hrs by MTT assay. It counts as functional. The settings on record: A549, 96 h, read-out: Activity.
Data set [16] concerns A549. The experiment in a line: Antiproliferative activity against human A549 cells assessed as cell viability at 80 uM after 48 hrs by MTT assay. It counts as functional. Conditions: A549, 48 h, read-out: Activity.
Data set [17] has as its system HUVEC. The experiment in a line: Antiproliferative activity against HUVEC assessed as cell viability after 24 hrs by MTT assay. Type of data set: cell-based. Conditions: human.
For data set [18], the system named is HUVEC. The experiment in a line: Antiproliferative activity against HUVEC assessed as cell viability after 48 hrs by MTT assay. It counts as cell-based. The settings on record: human.
For data set [19], the system named is HUVEC. The experiment in a line: Induction of HUVEC growth at 10 uM after 24 hrs by MTT assay. Type of data set: functional, cell-based. The settings on record: Homo sapiens.
In data set [20] the test system is A549. The experiment in a line: Effect on morphological changes in human A549 cells at 10 to 80 uM after 24 hrs. It counts as functional, cell-based.
Data set [21] relates to A549. Kind of data set: Effect on morphological changes in human A549 cells at 10 to 80 uM after 48 hrs. It counts as functional, cell-based.

What is called IC50 is the point on the concentration scale where inhibition reaches its midpoint. A low value points to greater potency in that assay.

With `COc1ccccc1OCC(O)Cn1nc(-c2ccccc2)cc1C(=O)NN` (centres undefined), the IC50 with A549 [1] worked out at 72 µM; in the data set on A549 [2] it was 49 µM. Further, the result in the data set on A549 [3], in the data set on NCI-H460 [4], in the data set with A549 [9], with NCI-H460 [10], in the data set with A549 [11] and in the data set on NCI-H460 [12] was inactive. Besides, the result in the data set on A549 [5], in the data set with A549 [6], in the data set with NCI-H460 [7] and in the data set with NCI-H460 [8] was Active.

Turning to `NNC(=O)c1cc(-c2ccccc2)nn1CC(O)COc1ccc([N+](=O)[O-])cc1` (centres undefined), the concentration for half-maximal inhibition (IC50) is 72 µM in the data set with A549 [1] and 45 µM with A549 [2]. For the same compound, the result with A549 [3], with NCI-H460 [4], in the data set with A549 [9], in the data set with NCI-H460 [10], in the data set with A549 [11] and in the data set with NCI-H460 [12] was inactive. In addition, the result with A549 [5], in the data set on A549 [6], with NCI-H460 [7] and in the data set on NCI-H460 [8] was Active.

For `COc1ccc(-c2cc(C(=O)NN)n(CC(O)COc3ccc(Cl)cc3)n2)cc1` (centres undefined), the half-maximal inhibitory concentration (IC50) amounted to 39 µM in the data set on A549 [1] and 35 µM in the data set on A549 [2]. Moreover, the result in the data set with A549 [3], in the data set on NCI-H460 [4], in the data set on A549 [9], with NCI-H460 [10], with A549 [11] and with NCI-H460 [12] was inactive. The outcome in the data set with A549 [5], with A549 [6], in the data set on NCI-H460 [7] and in the data set on NCI-H460 [8] was Active. Moreover, the viability at 40 µM came out at 62% with A549 [13] and 40% with A549 [14].

For `COc1ccc(-c2cc(C(=O)NN)n(CC(O)COc3ccccc3OC)n2)cc1` (centres undefined), the IC50 with A549 [1] was determined as 70 µM; in the data set with A549 [2] it was 51 µM. The outcome with A549 [3], in the data set with NCI-H460 [4], with A549 [9], with NCI-H460 [10], in the data set on A549 [11] and with NCI-H460 [12] was inactive. Besides, the outcome in the data set on A549 [5], with A549 [6], in the data set on NCI-H460 [7] and in the data set with NCI-H460 [8] was Active.

Consider `NNC(=O)c1cc(-c2ccc(Cl)cc2)nn1CC(O)COc1ccc([N+](=O)[O-])cc1` (centres undefined), for which the viability at 80 µM with A549 [15] amounted to 6%; in the data set with A549 [16], 29%. Also, the 50% inhibitory concentration (IC50) amounted to 39 µM with A549 [1] and 37 µM with A549 [2]. The result in the data set with A549 [3], with NCI-H460 [4], in the data set with A549 [9], with NCI-H460 [10], with A549 [11] and in the data set with NCI-H460 [12] was inactive. Moreover, the result in the data set with A549 [5], in the data set on A549 [6], in the data set on NCI-H460 [7] and with NCI-H460 [8] was Active. Moreover, the viability at 40 µM with A549 [13] was 72%; in the data set with A549 [14], 56%.

In the case of `NNC(=O)c1cc(-c2ccc(Cl)cc2)nn1CC(O)COc1ccc(Cl)cc1` (centres undefined), the viability at 80 µM with A549 [15] is 6%; in the data set on A549 [16], 29%. Further, the Activity entry with HUVEC [17] and in the data set with HUVEC [18] was “Not Active” each time. Besides, the outcome in the data set with HUVEC [19], in the data set with A549 [5], in the data set with A549 [6], in the data set with NCI-H460 [7], with NCI-H460 [8] and in the data set on A549 [20] was Active. Also, the outcome in the data set with A549 [21] was Active. In addition, the figures for the IC50 in the data set with A549 [1] and with A549 [2] were 32 µM and 27 µM, respectively. The outcome in the data set on A549 [3], in the data set on NCI-H460 [4], in the data set with A549 [9], in the data set on NCI-H460 [10], in the data set with A549 [11] and in the data set on NCI-H460 [12] was inactive. The results for the viability at 40 µM in the data set on A549 [13] and in the data set on A549 [14] were 72% and 56%, respectively.

For the compound `COc1ccccc1OCC(O)Cn1nc(-c2ccc(Cl)cc2)cc1C(=O)NN` (centres undefined), the IC50 in the data set on A549 [1] was found to be 74 µM; in the data set on A549 [2] it was 40 µM. Moreover, the outcome with A549 [3], with NCI-H460 [4], in the data set on A549 [9], with NCI-H460 [10], in the data set with A549 [11] and in the data set with NCI-H460 [12] was inactive. Also, the outcome in the data set with A549 [5], with A549 [6], in the data set with NCI-H460 [7] and in the data set with NCI-H460 [8] was Active.

Turning to `NNC(=O)c1cc(-c2ccccc2)nn1CC(O)COc1ccc(Cl)cc1` (centres undefined), the viability at 80 µM was found to be 6% in the data set with A549 [15] and 29% in the data set with A549 [16]. The Activity entry with HUVEC [17] and in the data set on HUVEC [18] was “Not Active” throughout. Besides, the IC50 was 48 µM with A549 [1] and 30 µM with A549 [2]. The result in the data set with A549 [3], in the data set on NCI-H460 [4], in the data set on A549 [9], in the data set on NCI-H460 [10], in the data set on A549 [11] and with NCI-H460 [12] was inactive. Further, the outcome in the data set with A549 [5], with A549 [6], in the data set on NCI-H460 [7], in the data set with NCI-H460 [8], with A549 [20] and in the data set on A549 [21] was Active. Also, the figures for the viability at 40 µM with A549 [13] and with A549 [14] were 72% and 56%, respectively.
